≈ marks a conversion by molar mass, not a printed value. Read-outs that look alike come from different tables or passages of the source.
Key:
[1] = tested on: methicillin-sensitive Staphylococcus aureus; assay: MIC by broth micro-dilution (CLSI), methicillin-sensitive S. aureus; assay type: cell-based; conditions: MSSA S. aureus ATCC29213
[2] = tested on: carbapenem sensitive Escherichia coli; assay: MIC by broth micro-dilution (CLSI), carbapenem sensitive E. coli; assay type: cell-based
[3] = tested on: carbapenem sensitive Pseudomonas aeruginosa; assay: MIC by broth micro-dilution (CLSI), carbapenem sensitive P. aeruginosa; assay type: cell-based
[4] = tested on: carbapenemase producing K. pneumoniae; assay: MIC by broth micro-dilution (CLSI), carbapenemase producing K. pneumoniae; assay type: cell-based, Klebsiella pneumoniae
[5] = Staphylococcus aureus, ATCC 29213 / MSSA, read-out: MIC
[6] = Escherichia coli, ATCC25922, ESBL −ve E. coli ATCC25922, read-out: MIC
[7] = Pseudomonas aeruginosa, ATCC27853, Meropenem susceptible P. aeruginosa ATCC27853, read-out: MIC
[8] = Klebsiella pneumoniae, ATCCBAA1705, KPC-2 K. pneumoniae ATCC BAA-1705, read-out: MIC

C[C@@H](NC(=O)Cn1cnnn1)[C@H]1C(=O)N2C(C(=O)O)=C(S[C@@H]3CN[C@H](C(=O)N4C[C@@H]5NCCO[C@@H]5C4)C3)[C@H](C)[C@H]12 [Example 353, (4R,5S,6R)-6-((R)-1-(2-(1H-tetrazol-1-yl)acetamido)ethyl)-4-methyl-3-((3S,5S)-5-((4aS,7aR)-octahydropyrrolo[3,4-b][1,4]oxazine-6-carbonyl)pyrrolidin-3-ylthio)-7-oxo-1-azabicyclo[3.2.0]hept-2-ene-2-carboxylic acid]
MIC [1, 5]: 16 µg/mL (≈ 27.8 µM) | MIC [2, 6]: 0.25 µg/mL (≈ 0.434 µM) | MIC [3, 7]: 16 µg/mL (≈ 27.8 µM) | MIC [4, 8]: 2 µg/mL (≈ 3.47 µM)

C[C@@H](NC(=O)[C@@H]1CSCN1)[C@H]1C(=O)N2C(C(=O)O)=C(S[C@@H]3CN[C@H](C(=O)N4CC[C@@H](N)C4)C3)[C@H](C)[C@H]12 [Example 271]
MIC [1, 5]: 2 µg/mL (≈ 3.71 µM) | MIC [2, 6]: 1 µg/mL (≈ 1.86 µM) | MIC [3, 7]: 8 µg/mL (≈ 14.9 µM) | MIC [4, 8]: 4 µg/mL (≈ 7.43 µM)

COc1nnnn1CC(=O)N[C@H](C)[C@H]1C(=O)N2C(C(=O)O)=C(S[C@@H]3CN[C@H](C(=O)N4CC[C@@H](N)C4)C3)[C@H](C)[C@H]12 [Example 386, (4R,5S,6R)-3-((3S,5S)-5-((R)-3-aminopyrrolidine-1-carbooyl)pyrrolidin-3-ylthio)-6-((R)-1-(2-(5-methoxy-1H-tetrazol-1-yl)acetamido)ethyl)-4-methyl-7-oxo-1-azabicyclo[3.2.0]hept-2-ene-2-carboxylic acid]
MIC [1, 5]: 2 µg/mL (≈ 3.55 µM) | MIC [2, 6]: 0.125 µg/mL (≈ 0.222 µM) | MIC [3, 7]: 8 µg/mL (≈ 14.2 µM) | MIC [4, 8]: 8 µg/mL (≈ 14.2 µM)

C[C@@H](NC(=O)Cn1cnnn1)[C@H]1C(=O)N2C(C(=O)O)=C(S[C@@H]3CN[C@H](C(=O)N4CC(N)C(CO)C4)C3)[C@H](C)[C@H]12 (single isomer, unassigned) [Example 586]
MIC [1, 5]: 4 µg/mL (≈ 7.1 µM) | MIC [2, 6]: 0.25 µg/mL (≈ 0.444 µM) | MIC [3, 7]: 2 µg/mL (≈ 3.55 µM) | MIC [4, 8]: 1 µg/mL (≈ 1.77 µM)

C[C@@H](NC(=O)Cn1cnnn1)[C@H]1C(=O)N2C(C(=O)O)=C(S[C@@H]3CN[C@H](C(=O)N4CCC5CN(CCN)CCC54)C3)[C@H](C)[C@H]12 (stereo partly drawn) [Example 489, (4R,5S,6R)-6-((R)-1-(2-(1H-tetrazol-1-yl)acetamido)ethyl)-3-((3S,5S)-5-(5-(2-aminoethyl)octahydro-1H-pyrrolo[3,2-c]pyridine-1-carbonyl)pyrrolidin-3-ylthio)-4-methyl-7-oxo-1-azabicyclo[3.2.0]hept-2-ene-2-carboxylic acid]
MIC [1, 5]: 4 µg/mL (≈ 6.49 µM) | MIC [2, 6]: 0.5 µg/mL (≈ 0.811 µM) | MIC [3, 7]: 16 µg/mL (≈ 25.9 µM) | MIC [4, 8]: 1 µg/mL (≈ 1.62 µM)

C[C@@H](NC(=O)Cn1cnnn1)[C@H]1C(=O)N2C(C(=O)O)=C(S[C@@H]3CN[C@H](C(=O)N4CCC5NCCCC54)C3)[C@H](C)[C@H]12 (single isomer, unassigned) [Example 469]
MIC [1]: 4 µg/mL (≈ 6.97 µM) | MIC ([2]; ESBL −ve E. coli ATCC25922): 0.5 µg/mL (≈ 0.872 µM) | MIC ([3]; Meropenem susceptible P. aeruginosa ATCC27853): 4 µg/mL (≈ 6.97 µM) | MIC ([4]; KPC-2 K. pneumoniae ATCC BAA-1705): 2 µg/mL (≈ 3.49 µM)

C[C@@H](NC(=O)Cn1cnnn1)[C@H]1C(=O)N2C(C(=O)O)=C(S[C@@H]3CN[C@H](C(=O)N4CC5(CCNC5)C4)C3)[C@H](C)[C@H]12 [Example 501, (4R,5S,6R)-6-((R)-1-(2-(1H-tetrazol-1-yl)acetamido)ethyl)-3-((3S,5S)-5-(2,6-diazaspiro[3,4]octane-2-carbonyl)pyrrolidin-3-ylthio)-4-methyl-7-oxo-1-azabicyclo[3.2.0]hept-2-ene-2-carboxylic acid]
MIC [1, 5]: 4 µg/mL (≈ 7.15 µM) | MIC [2, 6]: 0.25 µg/mL (≈ 0.447 µM) | MIC [3, 7]: 1 µg/mL (≈ 1.79 µM) | MIC [4, 8]: 1 µg/mL (≈ 1.79 µM)

C[C@@H](NC(=O)Cn1cnnn1)[C@H]1C(=O)N2C(C(=O)O)=C(S[C@@H]3CN[C@H](C(=O)N(CCO)CCO)C3)[C@H](C)[C@H]12 [Example 436, (4R,5S,6R)-6-((R)-1-(2-(1H-tetrazol-1-yl)acetamido)ethyl)-3-((3S,5S)-5-(bis(2-hydroxyethyl)carbarnoyl)pyrrolidin-3-ylthio)-4-methyl-7-oxo-1-azabicyclo[3.2.0]hept-2-ene-2-carboxylic acid]
MIC [1, 5]: 8 µg/mL (≈ 14.5 µM) | MIC [2, 6]: 0.25 µg/mL (≈ 0.452 µM) | MIC [3, 7]: 8 µg/mL (≈ 14.5 µM) | MIC [4, 8]: 1 µg/mL (≈ 1.81 µM)

C[C@@H](NC(=O)Cn1cnnn1)[C@H]1C(=O)N2C(C(=O)O)=C(S[C@@H]3CN[C@H](C(=O)N4CC[C@H](N)[C@@H](O)C4)C3)[C@H](C)[C@H]12 [Example 554, (4R,5S,6R)-6-((R)-1-(2-(1H-tetrazol-1-yl)acetamido)ethyl)-3-((3S,5S)-5-((3S,4S)-4-amino-3-hydroxypiperidine-1-carbonyl)-pyrrolidin-3-ylthio)-4-methyl-7-oxo-1-azabicyclo[3.2.0]hept-2-ene-2-carboxylic acid]
MIC [1, 5]: 4 µg/mL (≈ 7.1 µM) | MIC [2, 6]: 0.5 µg/mL (≈ 0.887 µM) | MIC [3, 7]: 2 µg/mL (≈ 3.55 µM) | MIC [4, 8]: 2 µg/mL (≈ 3.55 µM)

CNCC(=O)N[C@H](C)[C@H]1C(=O)N2C(C(=O)O)=C(SC[C@H](N)C(=O)N3CC[C@@H](N)C3)[C@H](C)[C@H]12 [Example 273]
MIC [1, 5]: 128 µg/mL (≈ 273 µM) | MIC [2, 6]: 16 µg/mL (≈ 34.1 µM) | MIC [3, 7]: 128 µg/mL (≈ 273 µM) | MIC [4, 8]: 32 µg/mL (≈ 68.3 µM)

C[C@@H](NC(=O)Cn1cnnn1)[C@H]1C(=O)N2C(C(=O)O)=C(S[C@@H]3CN[C@H](C(=O)N4C[C@H]5C[C@H](N)C[C@@]5(CN)C4)C3)[C@H](C)[C@H]12 [Example 538, (4R,5S,6R)-6-((R)-1-(2-(1H-tetrazol-1-yl)acetamido)ethyl)-3-((3S,5S)-5-((3aR,5S,6aS)-5-amino-3a-(aminomethyl)octahydro-cyclopenta[c]pyrrole-2-carbonyl)pyrrolidin-3-ylthio)-4-methyl-7-oxo-1-azabicyclo[3.2.0]hept-2-ene-2-carboxylic acid]
MIC [1, 5]: 4 µg/mL (≈ 6.64 µM) | MIC [2, 6]: 0.25 µg/mL (≈ 0.415 µM) | MIC [3, 7]: 1 µg/mL (≈ 1.66 µM) | MIC [4, 8]: 2 µg/mL (≈ 3.32 µM)

C[C@@H](NC(=O)Cc1nnnn1C)[C@H]1C(=O)N2C(C(=O)O)=C(S[C@@H]3CN[C@H](C(=O)N(C)C)C3)[C@H](C)[C@H]12 [Example 304, (4R,5S,6R)-3-((3S,5S)-5-(dimethylcarbamoyl)pyrrolidin-3-ylthio)-4-methyl-6-((R) - 1-(2-(1-methyl-1H-tetrazol-5-yl)acetamido)ethyl)-7-oxo-1-azabicyclo[3.2.0]hept-2-ene-2-carboxylic acid]
MIC [1, 5]: 8 µg/mL (≈ 15.8 µM) | MIC [2, 6]: 1 µg/mL (≈ 1.97 µM) | MIC [3, 7]: > 128 µg/mL | MIC [4, 8]: 4 µg/mL (≈ 7.9 µM)

C[C@@H](NC(=O)Cn1cnnn1)[C@H]1C(=O)N2C(C(=O)O)=C(S[C@@H]3CN[C@H](C(=O)N4C[C@@H]5C[C@@H](N)C[C@]5(CO)C4)C3)[C@H](C)[C@H]12 [Example 529, (4R,5S,6R)-6-((R)-1-(2-(1H-tetrazol-1-yl)acetamido)ethyl)-3-((3S,5S)-5-((3aR,5R,6aR)-5-amino-3a-(hydroxymethyl)octahydrocyclopenta[c]pyrrole-2-carbonyl)pyrrolidin-3-ylthio)-4-methyl-7-oxo-1-azabicyclo[3.2.0]hept-2-ene-2-carboxylic acid]
MIC [1, 5]: 4 µg/mL (≈ 6.63 µM) | MIC [2, 6]: 0.25 µg/mL (≈ 0.414 µM) | MIC [3, 7]: 1 µg/mL (≈ 1.66 µM) | MIC [4, 8]: 2 µg/mL (≈ 3.31 µM)

C[C@@H](NC(=O)Cn1cnnn1)[C@H]1C(=O)N2C(C(=O)O)=C(S[C@@H]3CN[C@H](C(=O)N4CCC(N)(CO)CC4)C3)[C@H](C)[C@H]12 [Example 475, (4R,5S,6R)-6-((R)-1-(2-(1H-tetrazol-1-yl)acetamido)ethyl)-3-((3S,5S)-5-(4-amino-4-(hydroxymethyl)piperidine-1-carbonyl)pyrrolidin-3-ylthio)-4-methyl-7-oxo-1-azabicyclo[3.2.0]hept-2-ene-2-carboxylic acid]
MIC [1, 5]: 4 µg/mL (≈ 6.92 µM) | MIC [2, 6]: 0.5 µg/mL (≈ 0.866 µM) | MIC [3, 7]: 2 µg/mL (≈ 3.46 µM) | MIC [4, 8]: 2 µg/mL (≈ 3.46 µM)

Source: US11180504B2 (ORCHID PHARMA LTD., priority 2016, dated 2021)
